As usually defined, the IC50 is the concentration that inhibits the measured activity by half. Broadly, the CC50 is the concentration that lowers cell viability or growth by half.

Data set [1] is described as follows: Stability in 0.1 M NaOH assessed as compound degradation at 1 mg/ml up to 7 days by UV/vis absorbance assay. In kind it is physicochemical. Particulars: 168 h.
A short description of data set [2]: Stability in 0.1 M HCl assessed as compound degradation at 1 mg/ml up to 7 days by UV/vis absorbance assay. In kind it is physicochemical. Particulars: buffer, 168 h.
The species named for another data set is Homo sapiens. Kind of data set: Selectivity index, ratio of IC50 for human recombinant MAOA to IC50 for human recombinant MAOB.
The target of the next data set is Cholinesterase (Equus caballus, UniProt P81908). The data set is described as follows: Inhibition of equine serum BuChE using S-butyrylthiocholine iodide as substrate pretreated for 10 mins followed by substrate addition and measured after 10 mins by Ellman's method. (In general: DTNB colorimetry detects thiols as they appear.)
Sequence of Cholinesterase (P81908 whole entry): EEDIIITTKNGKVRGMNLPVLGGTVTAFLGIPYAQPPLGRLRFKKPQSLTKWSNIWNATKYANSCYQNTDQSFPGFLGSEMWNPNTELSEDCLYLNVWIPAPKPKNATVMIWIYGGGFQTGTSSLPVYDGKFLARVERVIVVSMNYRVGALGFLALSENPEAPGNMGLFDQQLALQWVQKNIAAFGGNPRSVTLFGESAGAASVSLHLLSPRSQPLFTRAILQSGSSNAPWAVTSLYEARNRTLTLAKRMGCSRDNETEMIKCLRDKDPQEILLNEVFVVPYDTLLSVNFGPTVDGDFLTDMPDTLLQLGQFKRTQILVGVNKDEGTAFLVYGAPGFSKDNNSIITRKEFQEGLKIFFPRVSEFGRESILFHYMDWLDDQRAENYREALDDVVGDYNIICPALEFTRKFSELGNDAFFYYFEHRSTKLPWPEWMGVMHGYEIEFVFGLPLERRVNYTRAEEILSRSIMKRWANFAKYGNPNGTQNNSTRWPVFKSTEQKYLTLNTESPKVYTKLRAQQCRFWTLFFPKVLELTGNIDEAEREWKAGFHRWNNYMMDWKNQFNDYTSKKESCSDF
Data set [3] addresses T1, Amine oxidase [flavin-containing] B (Homo sapiens, UniProt P27338).
T1 sequence (P27338 whole entry): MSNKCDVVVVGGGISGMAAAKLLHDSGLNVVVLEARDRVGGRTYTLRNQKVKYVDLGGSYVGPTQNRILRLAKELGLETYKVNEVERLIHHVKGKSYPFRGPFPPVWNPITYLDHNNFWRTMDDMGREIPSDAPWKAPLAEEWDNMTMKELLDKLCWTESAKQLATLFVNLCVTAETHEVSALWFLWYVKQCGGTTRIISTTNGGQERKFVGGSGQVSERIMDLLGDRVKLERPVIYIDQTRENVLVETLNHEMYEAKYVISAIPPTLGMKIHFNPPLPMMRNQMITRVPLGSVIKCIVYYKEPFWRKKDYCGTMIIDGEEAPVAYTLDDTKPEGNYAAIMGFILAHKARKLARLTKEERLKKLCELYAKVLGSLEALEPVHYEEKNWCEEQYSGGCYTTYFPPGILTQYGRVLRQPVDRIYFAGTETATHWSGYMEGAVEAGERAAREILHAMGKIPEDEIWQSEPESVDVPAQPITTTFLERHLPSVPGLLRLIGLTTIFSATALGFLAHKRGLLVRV
Description: Inhibition of human recombinant MAOB using kynuramine as substrate preincubated for 10 mins followed by substrate addition at 10 secs intervals measured after 20 mins by fluorescence assay

In the next data set the target is Acetylcholinesterase (Electrophorus electricus, UniProt O42275). Kind of data set: Inhibition of electric eel AChE using acetylthiocholine iodide as substrate preincubated for 10 mins followed by substrate addition and measured after 10 mins by Ellman's method.
Sequence of Acetylcholinesterase (O42275 whole entry): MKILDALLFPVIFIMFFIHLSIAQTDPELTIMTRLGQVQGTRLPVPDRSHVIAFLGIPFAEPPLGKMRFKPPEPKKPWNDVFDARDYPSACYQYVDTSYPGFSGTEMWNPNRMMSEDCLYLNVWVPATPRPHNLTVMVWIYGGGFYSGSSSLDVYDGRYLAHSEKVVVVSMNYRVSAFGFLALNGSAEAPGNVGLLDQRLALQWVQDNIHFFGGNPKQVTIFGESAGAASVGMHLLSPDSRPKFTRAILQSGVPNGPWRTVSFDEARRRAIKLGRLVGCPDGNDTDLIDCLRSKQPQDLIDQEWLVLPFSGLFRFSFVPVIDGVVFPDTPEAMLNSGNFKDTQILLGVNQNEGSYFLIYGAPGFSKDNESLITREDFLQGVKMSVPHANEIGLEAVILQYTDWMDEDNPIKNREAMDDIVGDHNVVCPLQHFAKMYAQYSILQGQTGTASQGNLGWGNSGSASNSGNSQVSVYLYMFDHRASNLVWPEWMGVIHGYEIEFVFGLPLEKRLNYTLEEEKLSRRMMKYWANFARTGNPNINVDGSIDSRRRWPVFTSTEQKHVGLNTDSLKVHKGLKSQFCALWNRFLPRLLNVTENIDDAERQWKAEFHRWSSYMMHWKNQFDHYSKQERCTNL
Data set [4] deals with T2, Amine oxidase [flavin-containing] A (Homo sapiens, UniProt P21397).
T2 sequence (P21397 whole entry): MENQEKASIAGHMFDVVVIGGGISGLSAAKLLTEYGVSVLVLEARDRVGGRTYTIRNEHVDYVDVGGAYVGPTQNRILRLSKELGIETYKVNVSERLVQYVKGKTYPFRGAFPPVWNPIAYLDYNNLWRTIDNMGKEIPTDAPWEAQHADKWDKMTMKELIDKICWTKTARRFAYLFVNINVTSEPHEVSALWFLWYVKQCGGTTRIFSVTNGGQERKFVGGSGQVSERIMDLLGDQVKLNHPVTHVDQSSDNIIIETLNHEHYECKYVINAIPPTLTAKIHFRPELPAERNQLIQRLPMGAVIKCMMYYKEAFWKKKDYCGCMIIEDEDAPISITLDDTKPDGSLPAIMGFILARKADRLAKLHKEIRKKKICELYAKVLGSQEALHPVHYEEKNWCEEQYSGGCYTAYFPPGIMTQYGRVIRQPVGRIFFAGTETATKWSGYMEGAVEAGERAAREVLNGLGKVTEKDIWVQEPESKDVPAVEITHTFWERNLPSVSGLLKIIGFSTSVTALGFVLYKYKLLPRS
Kind of data set: Inhibition of human recombinant MAOA using kynuramine as substrate preincubated for 10 mins followed by substrate addition at 10 secs intervals measured after 20 mins by fluorescence assay.

The subject of data set [5] is SH-SY5Y. The data set is described as follows: Cytoprotection against MPP+ induced cell death in human SH-SY5Y cells assessed as cell survival at 5 to 10 uM preincubated for 2 hrs followed by MPP+ addition and measured after 48 hrs by MTT assay (reference value: 52.78 +/- 7.35%). In kind it is functional, cell-based. (In general: Formazan colour is commonly taken as a measure of viable cells.)

For data set [6], the system named is SH-SY5Y. The data set is described as follows: Cytoprotection against MPP+ induced cell death in human SH-SY5Y cells assessed as cell survival at 1 uM preincubated for 2 hrs followed by MPP+ addition and measured after 48 hrs by MTT assay (reference value: 52.78 +/- 7.35%). In kind it is functional. Particulars: read-out: Activity.
The nature of data set [7]: (§1) Cytotoxicity against human SH-SY5Y cells assessed as reduction in cell viability after 48 hrs by MTT assay. In kind it is cell-based. Particulars: SH-SY5Y cells.
The subject of data set [8] is SH-SY5Y. The data set is described as §1. Particulars: sh-sy5y, 48 h. In kind it is cell-based.
Data set [9] deals with T2, Amine oxidase [flavin-containing] A. The data set is described as follows: Irreversible time dependent inhibition of human recombinant MAOA at 2 times IC50 using kynuramine as substrate preincubated up to 60 mins followed by 45 uM substrate addition by fluorescence assay. Particulars: TDE = time-dependent effect.

Active and inactive are the calls of the source. The calls are words filed in the database; no cut-off is given here. A value given as a limit tells only on which side of the number the result lay.

Take `C#CCn1ccc2ccc(OC(=O)N(CC)CC)cc21`: the Stability result in data set [1] and in data set [2] was “Unstable” each time. Moreover, in the data set filed under Homo sapiens, the Ratio IC50 is 28.1. The IC50 stood at 5.01 µM at Cholinesterase, 1.84 µM in [3], 2.41 µM at Acetylcholinesterase and 51.6 µM in data set [4].

On to `C#CCn1ccc2ccc(NC(=O)N(CC)CC)cc21`, for which the Stability entry in data set [1] and in [2] was “Stable” in each case. Further, in the data set on SH-SY5Y [5], the outcome was Active. The Ratio IC50 in the data set filed under Homo sapiens was determined as 1.65. Further, the 50% inhibitory concentration (IC50) on Cholinesterase was 2.82 µM; in data set [3], 2.62 µM; against Acetylcholinesterase it was 3.7 µM; in [4], 4.31 µM. Further, in the data set with SH-SY5Y [6], the viability at 1 µM is 107%. Further, the CC50 at 48 h in [7] was greater than 100 µM. Besides, the Activity entry in the data set on SH-SY5Y [8] is given as “Dose-dependent effect”. Further, the “inhibition (INH)” value in [9] is reported as “Tde”.

As to `C#CCn1ccc2cc(OC(=O)N(CC)CC)ccc21`, the Ratio IC50 in the data set listed under Homo sapiens came out at 6. Besides, the IC50 on Cholinesterase is 3.01 µM; in data set [3], 16.5 µM; against Acetylcholinesterase, 2.57 µM; in data set [4] it was 99.1 µM.

In the case of `CCN(CC)C(=O)Oc1ccc2cc[nH]c2c1`, the Ratio IC50 in the data set filed under Homo sapiens is less than 0.88. For the same compound, the half-maximal inhibitory concentration (IC50) on Cholinesterase is 3.18 µM; in data set [3] it was greater than 100 µM; on Acetylcholinesterase, 3.72 µM; in [4], 88.1 µM.

Take `C#CCN(C)CCCOc1ccc(Cl)cc1Cl` [CLORGILINE]: the “inhibition (INH)” value in data set [9] was “Tde”.

In the case of `C#CCN[C@@H]1CCc2ccc(OC(=O)N(C)CC)cc21` [LADOSTIGIL], the Ratio IC50 in the data set filed under Homo sapiens is greater than 2.69. Also, the IC50 at Cholinesterase is 1.98 µM; on Acetylcholinesterase, 31.8 µM; in data set [4], greater than 100 µM.

For `CCN(CC)C(=O)Oc1ccc2[nH]ccc2c1`, in the data set listed under Homo sapiens, the Ratio IC50 is less than 0.13. The IC50 on Cholinesterase was 2.29 µM; in data set [3] it was greater than 100 µM; at Acetylcholinesterase, 2.78 µM; in data set [4], 13.2 µM.

Take `C#CCn1ccc2cc(NC(=O)N(CC)CC)ccc21`: the Ratio IC50 in the data set listed under Homo sapiens worked out at 1.16. The concentration for half-maximal inhibition (IC50) on Cholinesterase amounted to 3.96 µM; in data set [3] it was 28.8 µM; on Acetylcholinesterase, 2.77 µM; in data set [4], 33.4 µM.

With `CCN(CC)C(=O)Nc1ccc2cc[nH]c2c1`, the outcome with SH-SY5Y [5] was Active. Moreover, the Ratio IC50 in the data set filed under Homo sapiens is less than 0.2. Besides, the IC50 was 4.55 µM at Cholinesterase, greater than 100 µM in data set [3], 2.28 µM at Acetylcholinesterase and 20.4 µM in data set [4]. Besides, the viability at 1 µM with SH-SY5Y [6] was 84.3%. Further, the CC50 at 48 h in data set [7] was greater than 100 µM. Also, in the data set with SH-SY5Y [8], the Activity result is given as “Dose-dependent effect”.

With `CCN(CC)C(=O)Nc1ccc2[nH]ccc2c1`, the IC50 on Cholinesterase was 3.48 µM; in data set [3] it was greater than 100 µM; against Acetylcholinesterase, 1.97 µM; in data set [4], greater than 100 µM.

The values above are taken from ChEMBL document CHEMBL4257479, “Design, synthesis and evaluation of indole derivatives as multifunctional agents against Alzheimer's disease” (Medchemcomm, 2018).
